Assay results from patent publication US9409892B2, “4-hydroxy-isoquinoline compounds as HIF hydroxylase inhibitors” (FIBROGEN, INC., priority 2012, dated 2016).
“And” between values parts separate entries of the source, which are not always exact repeats. Equal values may be shown once. Read-outs that look alike come from different tables or passages of the source.

Key:
PHD1 (EGLN2) = PHD1 (EGLN2) (Homo sapiens (Human), UniProt Q96KS0); test: HIF-PH assay (14CO2 capture), PHD1 enzyme inhibition; format: biochemical
PHD2 (EGLN1) = PHD2 (EGLN1) (Homo sapiens (Human), UniProt Q9GZT9); test: HIF-PH assay (14CO2 capture), PHD2 enzyme inhibition; format: biochemical; details: Table 1
[1] = Table 1, individual measurement, read-out: IC50 (μM) PHD1
[2] = Table 1, ratio of the IC50 of the compound for each enzyme
[3] = individual measurement, read-out: IC50 (μM) PHD2

PHD1 (EGLN2), sequence (Q96KS0 whole entry): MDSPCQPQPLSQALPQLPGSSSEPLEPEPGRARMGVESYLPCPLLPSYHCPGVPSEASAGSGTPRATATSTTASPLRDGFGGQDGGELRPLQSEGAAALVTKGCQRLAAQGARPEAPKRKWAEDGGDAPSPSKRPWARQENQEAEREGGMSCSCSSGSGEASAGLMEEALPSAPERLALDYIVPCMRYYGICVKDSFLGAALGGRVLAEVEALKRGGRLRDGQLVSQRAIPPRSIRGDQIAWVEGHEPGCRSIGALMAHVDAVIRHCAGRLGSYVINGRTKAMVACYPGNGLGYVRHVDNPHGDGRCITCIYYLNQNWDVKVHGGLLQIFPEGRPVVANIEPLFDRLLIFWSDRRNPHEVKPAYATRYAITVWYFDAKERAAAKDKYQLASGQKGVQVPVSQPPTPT
PHD2 (EGLN1), sequence (Q9GZT9 whole entry): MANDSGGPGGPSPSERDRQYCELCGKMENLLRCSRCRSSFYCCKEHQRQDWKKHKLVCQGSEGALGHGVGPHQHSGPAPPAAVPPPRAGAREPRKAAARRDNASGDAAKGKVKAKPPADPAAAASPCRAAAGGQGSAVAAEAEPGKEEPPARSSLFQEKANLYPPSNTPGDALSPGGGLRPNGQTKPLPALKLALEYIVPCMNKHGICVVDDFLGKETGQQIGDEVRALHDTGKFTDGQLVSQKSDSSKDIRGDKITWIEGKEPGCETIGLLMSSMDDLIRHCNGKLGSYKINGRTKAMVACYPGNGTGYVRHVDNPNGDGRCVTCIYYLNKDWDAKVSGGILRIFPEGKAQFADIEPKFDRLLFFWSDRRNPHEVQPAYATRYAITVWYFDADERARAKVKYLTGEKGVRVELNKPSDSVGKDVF

| Structure (SMILES) | IC50 (PHD1 (EGLN2); [1]) | PHD2/PHD1 (PHD1 (EGLN2); [2]) | IC50 (PHD2 (EGLN1); [3]) | PHD2/PHD1 (PHD1 (EGLN2); Table 2 comparative data, IC50 PHD2/IC50 PHD1) | IC50 (PHD1 (EGLN2); Table 1, average of multiple independent measurements, read-out: IC50 (μM) PHD1 avg.) [µM] | PHD2/PHD1 avg. (PHD1 (EGLN2); Table 1, average of the ratios of multiple independent measurements) [avg.] | IC50 (PHD2 (EGLN1); average of multiple independent measurements, read-out: IC50 (μM) PHD2 avg.) [µM] |
| --- | --- | --- | --- | --- | --- | --- | --- |
| N#Cc1nc(C(=O)NCC(C(=O)O)C2CC2)c(O)c2ccc(Oc3ccccc3)cc12 (stereo not shown) [Compound 166, 3-[(1-Cyano-4-hydroxy-7-phenoxy-isoquinoline-3-carbonyl)-amino]-2-cyclopropyl-propionic acid] | 0.42 µM | 29 | 12.2 µM |  |  |  |  |
| N#Cc1nc(C(=O)NCC(O)C(=O)O)c(O)c2ccc(Oc3ccccc3)cc12 (stereo not shown) [Compound 76, 3-[(1-Cyano-4-hydroxy-7-phenoxy-isoquinoline-3-carbonyl)-amino]-2-hydroxy-propionic acid] | 0.16 µM | 18 | 2.86 µM |  |  |  |  |
| N#Cc1nc(C(=O)NC2(CC(=O)O)CCCCC2)c(O)c2ccc(Oc3ccccc3)cc12 [Compound 90, {1-[(1-Cyano-4-hydroxy-7-phenoxy-isoquinoline-3-carbonyl)-amino]-cyclohexyl}-acetic acid] | 7.32 µM | 8 | 56.3 µM |  |  |  |  |
| N#Cc1nc(C(=O)NCCC(=O)O)c(O)c2ccc(Oc3ccccc3)cc12 [Compound 10, 3-[(1-Cyano-4-hydroxy-7-phenoxy-isoquinoline-3-carbonyl)-amino]-propionic acid] | 0.24 µM | 5 | 1.33 µM | 5 |  |  |  |
| N#Cc1nc(C(=O)NCCCCC(=O)O)c(O)c2ccc(Oc3ccccc3)cc12 [Compound 81, 5-[(1-Cyano-4-hydroxy-7-phenoxy-isoquinoline-3-carbonyl)-amino]-pentanoic acid] | 0.42 µM | 12 | 4.95 µM |  |  |  |  |
| N#Cc1nc(C(=O)N[C@H](CCc2ccccc2)CC(=O)O)c(O)c2ccc(Oc3ccccc3)cc12 [Compound 107, 3-(R)-[(1-Cyano-4-hydroxy-7-phenoxy-isoquinoline-3-carbonyl)-amino]-5-phenyl-pentanoic acid] | 2.46 µM and 2.28 µM | 4 and 6 | 9.28 µM and 14.4 µM |  | 2.37 | 5 | 11.8 |
| CC(C)(CNC(=O)c1nc(C#N)c2cc(Oc3ccccc3F)ccc2c1O)C(=O)O [Compound 41, 3{-[1-Cyano-7-(2-fluoro-phenoxy)-4-hydroxy-isoquinoline-3-carbonyl]-amino}-2,2-dimethyl-propionic acid] | 0.55 µM | 17 | 9.56 µM |  |  |  |  |

The remaining molecules from weak to strong by IC50 (PHD1 (EGLN2); [1]), led by results:

| IC50 (PHD1 (EGLN2); [1]) | PHD2/PHD1 (PHD1 (EGLN2); [2]) | IC50 (PHD2 (EGLN1); [3]) | PHD2/PHD1 (PHD1 (EGLN2); Table 2 comparative data, IC50 PHD2/IC50 PHD1) | IC50 (PHD1 (EGLN2); Table 1, average of multiple independent measurements, read-out: IC50 (μM) PHD1 avg.) [µM] | PHD2/PHD1 avg. (PHD1 (EGLN2); Table 1, average of the ratios of multiple independent measurements) [avg.] | IC50 (PHD2 (EGLN1); average of multiple independent measurements, read-out: IC50 (μM) PHD2 avg.) [µM] | Structure (SMILES) |
| --- | --- | --- | --- | --- | --- | --- | --- |
| 18.5 µM | 5 | 87 µM |  |  |  |  | O=C(O)CCCCNC(=O)c1ncc2cc(-c3ccc(F)cc3)ccc2c1O [Compound 149, 5-{[7-(4-Fluoro-phenyl)-4-hydroxy-isoquinoline-3-carbonyl]-amino}-pentanoic acid] |
| 17.4 µM | 12 | 200 µM |  |  |  |  | CC(C)(CNC(=O)c1nc(C#N)c2cc(S(=O)(=O)C3CCCCC3)ccc2c1O)C(=O)O [Compound 160, 3-[(1-Cyano-7-cyclohexanesulfonyl-4-hydroxy-isoquinoline-3-carbonyl)-amino]-2,2-dimethyl-propionic acid] |
| 5.26 µM | 9 | 45.7 µM |  |  |  |  | Cc1ccccc1[C@H](CC(=O)O)NC(=O)c1nc(C#N)c2cc(Oc3ccccc3)ccc2c1O [Compound 171, 3-(S)-[(1-Cyano-4-hydroxy-7-phenoxy-isoquinoline-3-carbonyl)-amino]-3-o-tolyl-propionic acid] |
| 4.08 µM | 6 | 24.6 µM |  |  |  |  | N#Cc1nc(C(=O)N[C@H](CC(=O)O)c2cccnc2)c(O)c2ccc(Oc3ccccc3)cc12 [Compound 176, 3-(R)-[(1-Cyano-4-hydroxy-7-phenoxy-isoquinoline-3-carbonyl)-amino]-3-pyridin-3-yl-propionic acid] |
| 0.91 µM | 9 | 7.9 µM |  |  |  |  | N#Cc1nc(C(=O)NCC2(C(=O)O)CCC2)c(O)c2ccc(OC3CCCCC3)cc12 [Compound 159, 1-{[(1-Cyano-7-cyclohexyloxy-4-hydroxy-isoquinoline-3-carbonyl)-amino]-methyl}-cyclobutanecarboxylic acid] |
| 0.41 µM | 11 | 4.65 µM |  |  |  |  | CC(C)(CNC(=O)c1nc(C#N)c2cc(Oc3ccc(F)cc3)ccc2c1O)C(=O)O [Compound 101, 3{-[1-Cyano-7-(4-fluoro-phenoxy)-4-hydroxy-isoquinoline-3-carbonyl]-amino}-2,2-dimethyl-propionic acid] |
| 0.41 µM | 22 | 9.12 µM |  |  |  |  | CC(C)(CNC(=O)c1nc(C#N)c2cc(Oc3ccccc3)ccc2c1O)C(=O)O [Compound 77, 3-[(1-Cyano-4-hydroxy-7-phenoxy-isoquinoline-3-carbonyl)-amino]-2,2-dimethyl-propionic acid] |
| 0.22 µM | 8 | 1.73 µM |  |  |  |  | CC(C)(CNC(=O)c1nc(C#N)c2cc(Oc3cccc4ccccc34)ccc2c1O)C(=O)O [Compound 43, 3-(1-Cyano-4-hydroxy-7-(naphthalen-1-yloxy)isoquinoline-3-carboxamido)-2,2-dimethylpropanoic acid] |
